These results are taken from ChEMBL document CHEMBL5241054, “Effective anti-aromatase therapy to battle against estrogen-mediated breast cancer: Comparative SAR/QSAR assessment on steroidal aromatase inhibitors” (Eur J Med Chem, 2020).

For this assay, the target named is T1, Aromatase (Homo sapiens, UniProt P11511).
T1 sequence (P11511 whole entry): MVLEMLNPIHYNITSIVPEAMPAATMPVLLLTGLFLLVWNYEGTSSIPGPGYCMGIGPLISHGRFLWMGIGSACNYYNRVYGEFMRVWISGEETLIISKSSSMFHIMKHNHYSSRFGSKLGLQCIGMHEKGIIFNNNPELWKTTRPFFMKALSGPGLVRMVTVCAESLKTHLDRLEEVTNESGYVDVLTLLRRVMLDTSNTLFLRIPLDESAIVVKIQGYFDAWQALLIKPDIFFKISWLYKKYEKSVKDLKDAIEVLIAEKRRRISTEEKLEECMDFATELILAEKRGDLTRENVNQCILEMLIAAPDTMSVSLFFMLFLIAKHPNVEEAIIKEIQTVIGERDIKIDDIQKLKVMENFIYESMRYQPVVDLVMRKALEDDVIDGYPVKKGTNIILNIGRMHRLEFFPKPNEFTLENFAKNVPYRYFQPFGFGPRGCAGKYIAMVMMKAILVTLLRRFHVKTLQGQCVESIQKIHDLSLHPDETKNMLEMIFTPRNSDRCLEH
Turning to `CCCCS[C@@H]1CC2=CC(=O)CC[C@]2(C)[C@H]2CC[C@]3(C)C(=O)CC[C@H]3[C@H]12`, the IC50 (commonly the point on the concentration scale where inhibition reaches its midpoint) is 0.057 µM. That is a double-digit nanomolar value. The figure for `C[C@]12CCC(=O)C=C1C[C@@H](SCc1ccccc1)[C@@H]1[C@@H]2CC[C@]2(C)C(=O)CC[C@@H]12` is 0.069 µM.

Consider `C[C@]12CCC(=O)C=C1C[C@@H](SCCc1ccccc1)[C@@H]1[C@@H]2CC[C@]2(C)C(=O)CC[C@@H]12`, for which the IC50 is 0.0619 µM. Next, `COc1ccc(CS[C@@H]2CC3=CC(=O)CC[C@]3(C)[C@H]3CC[C@]4(C)C(=O)CC[C@H]4[C@H]23)cc1`: 0.031 µM. The figure for `C[C@]12CCC(=O)C=C1C[C@@H](Sc1ccc(N)cc1)[C@@H]1[C@@H]2CC[C@]2(C)C(=O)CC[C@@H]12` is 0.16 µM; for `C[C@]12CC[C@@H]3c4ccc(O)c(NC(=O)c5ccncc5)c4CC[C@H]3[C@@H]1CCC2=O` it is 28.6 µM; for `CCCCCCCC[C@H]1C[C@@H]2[C@H](CC[C@]3(C)C(=O)CC[C@@H]23)[C@@]2(C)CCC(=O)C=C12` it is 5.11 µM. The figure for `CCCCC[C@H]1C[C@@H]2[C@H](CC[C@]3(C)C(=O)CC[C@@H]23)[C@@]2(C)CCC(=O)C=C12` is 0.4 µM; for `CCCCC[C@@H]1C[C@@H]2[C@H](CC[C@]3(C)C(=O)CC[C@@H]23)[C@@]2(C)CCC(=O)C=C12` it is 0.23 µM. On to `COC1=C[C@@]2(C)C(=CC1=O)CC[C@@H]1[C@@H]2CC[C@]2(C)C(=O)CC[C@@H]12`, for which the IC50 is 1.1 µM. Next, `C[C@]12C=C(CCCc3ccccc3)C(=O)C=C1CC[C@@H]1[C@@H]2CC[C@]2(C)C(=O)CC[C@@H]12`: 0.145 µM. Next, `CCCCCC[C@H]1C[C@@H]2[C@H](CC[C@]3(C)C(=O)CC[C@@H]23)[C@@]2(C)CCC(=O)C=C12`: 1 µM; `C[C@]12CCC(=O)C=C1C=C(c1ccccc1)[C@@H]1[C@@H]2CC[C@]2(C)C(=O)CC[C@@H]12`: 1.43 µM; `CCCCCC[C@@H]1C[C@@H]2[C@H](CC[C@]3(C)C(=O)CC[C@@H]23)[C@@]2(C)CCC(=O)C=C12`: 0.43 µM. Next, `CCCCCCCC[C@@H]1C[C@@H]2[C@H](CC[C@]3(C)C(=O)CC[C@@H]23)[C@@]2(C)CCC(=O)C=C12`: 1.8 µM. `CCCCOC1=C[C@@]2(C)C(=CC1=O)CC[C@@H]1[C@@H]2CC[C@]2(C)C(=O)CC[C@@H]12` gave an IC50 of 29.6 µM.

`CCCC[C@H]1C[C@@H]2[C@H](CC[C@]3(C)C(=O)CC[C@@H]23)[C@@]2(C)C=CC(=O)C=C12` showed an IC50 of 0.2 µM. Next, `CCC[C@H]1C[C@@H]2[C@H](CC[C@]3(C)C(=O)CC[C@@H]23)[C@@]2(C)C=CC(=O)C=C12`: 0.27 µM; `C[C@]12CC[C@@H]3c4ccc(O)c(NC(=O)c5cccnc5)c4CC[C@H]3[C@@H]1CCC2=O`: 95.7 µM; `C[C@]12C[C@@H](CCc3ccccc3)C(=O)C=C1CC[C@@H]1[C@@H]2CC[C@]2(C)C(=O)CC[C@@H]12`: 126 µM. Next, `CCC[C@@H]1C[C@@]2(C)C(=CC1=O)CC[C@@H]1[C@@H]2CC[C@]2(C)C(=O)CC[C@@H]12`: 1.46 µM; `CCCCC1=C[C@@]2(C)C(=CC1=O)CC[C@@H]1[C@@H]2CC[C@]2(C)C(=O)CC[C@@H]12`: 1.84 µM.

For `Cc1ccc(CC[C@@H]2C[C@@]3(C)C(=CC2=O)CC[C@@H]2[C@@H]3CC[C@]3(C)C(=O)CC[C@@H]23)cc1`, half-maximal inhibition (IC50) was put at 38.8 µM. The figure for `C[C@]12C[C@@H](CCCc3ccccc3)C(=O)C=C1CC[C@@H]1[C@@H]2CC[C@]2(C)C(=O)CC[C@@H]12` is 50.2 µM. `CCCCCCC1=C[C@@]2(C)C(=CC1=O)CC[C@@H]1[C@@H]2CC[C@]2(C)C(=O)CC[C@@H]12` showed an IC50 of 0.298 µM. Turning to `Cc1ccc(CCC2=C[C@@]3(C)C(=CC2=O)CC[C@@H]2[C@@H]3CC[C@]3(C)C(=O)CC[C@@H]23)cc1`, half-maximal inhibition (IC50) required 6.35 µM.

`CCCC[C@@H]1C[C@@]2(C)C(=CC1=O)CC[C@@H]1[C@@H]2CC[C@]2(C)C(=O)CC[C@@H]12` gave an IC50 of 1.93 µM. Next, `C[C@]12C=C(CCCCc3ccccc3)C(=O)C=C1CC[C@@H]1[C@@H]2CC[C@]2(C)C(=O)CC[C@@H]12`: 34.2 µM; `CCCCCC[C@@H]1C[C@@]2(C)C(=CC1=O)CC[C@@H]1[C@@H]2CC[C@]2(C)C(=O)CC[C@@H]12`: 10.4 µM.

Turning to `C[C@]12C=C(Cc3ccccc3)C(=O)C=C1CC[C@@H]1[C@@H]2CC[C@]2(C)C(=O)CC[C@@H]12`, the IC50 is 86.5 µM. Against the preceding compound, the IC50 is about 8.3-fold higher. Next, `C[C@]12C[C@@H](Cc3ccccc3)C(=O)C=C1CC[C@@H]1[C@@H]2CC[C@]2(C)C(=O)CC[C@@H]12`: 466 µM; `CCCCCCCC1=C[C@@]2(C)C(=CC1=O)CC[C@@H]1[C@@H]2CC[C@]2(C)C(=O)CC[C@@H]12`: 0.605 µM. Next, `CCOC1=C[C@@]2(C)C(=CC1=O)CC[C@@H]1[C@@H]2CC[C@]2(C)C(=O)CC[C@@H]12`: 17.6 µM; `C[C@]12CC[C@@H]3c4cc(NC(=O)c5cccnc5)c(O)cc4CC[C@H]3[C@@H]1CCC2=O`: 75.3 µM; `CC[C@H]1C[C@@H]2[C@H](CC[C@]3(C)C(=O)CC[C@@H]23)[C@@]2(C)C=CC(=O)C=C12`: 0.25 µM.

For `C[C@]12CC[C@@H]3c4cc(NC(=O)c5ccccn5)c(O)cc4CC[C@H]3[C@@H]1CCC2=O`, 209 µM corresponded to half-maximal inhibition (IC50). Next, `C[C@]12C=C(CCc3ccccc3)C(=O)C=C1CC[C@@H]1[C@@H]2CC[C@]2(C)C(=O)CC[C@@H]12`: 2.57 µM. The figure for `C[C@]12C=C(CCc3ccc(C(F)(F)F)cc3)C(=O)C=C1CC[C@@H]1[C@@H]2CC[C@]2(C)C(=O)CC[C@@H]12` is 34.1 µM.

`C[C@]12C[C@@H](CCc3ccc(C(F)(F)F)cc3)C(=O)C=C1CC[C@@H]1[C@@H]2CC[C@]2(C)C(=O)CC[C@@H]12`: 46.6 µM corresponded to half-maximal inhibition (IC50). Next, `CCCCC[C@@H]1C[C@@]2(C)C(=CC1=O)CC[C@@H]1[C@@H]2CC[C@]2(C)C(=O)CC[C@@H]12`: 1.28 µM. The compound `CCCC1=C[C@@]2(C)C(=CC1=O)CC[C@@H]1[C@@H]2CC[C@]2(C)C(=O)CC[C@@H]12` showed an IC50 of 1.75 µM. Next, `C[C@]12CC[C@@H]3c4ccc(OC(=O)c5ccno5)cc4CC[C@H]3[C@@H]1CCC2=O`: 244 µM. Next, `CCC1=C[C@@]2(C)C(=CC1=O)CC[C@@H]1[C@@H]2CC[C@]2(C)C(=O)CC[C@@H]12`: 0.959 µM. Take `C[C@]12CC[C@@H]3c4ccc(O)c(NC(=O)c5ccccn5)c4CC[C@H]3[C@@H]1CCC2=O`: the IC50 is 203 µM.

For `CCCCCC1=C[C@@]2(C)C(=CC1=O)CC[C@@H]1[C@@H]2CC[C@]2(C)C(=O)CC[C@@H]12`, the IC50 is 0.743 µM. For the compound `C[C@]12C=C(Br)C(=O)C=C1CC[C@@H]1[C@@H]2CC[C@]2(C)C(=O)CC[C@@H]12`, the IC50 was 1.84 µM. This IC50 is about 2.5-fold higher than that of the compound before. Consider `C[C@]12C[C@@H](CCCCc3ccccc3)C(=O)C=C1CC[C@@H]1[C@@H]2CC[C@]2(C)C(=O)CC[C@@H]12`, for which the IC50 is 222 µM.
